Results on four compounds are retold here after US11191801B2, “Pharmaceutical composition for preventing or treating diabetic complications and angioedema, containing natural mixture extract as active ingredient” (KOREA INSTITUTE OF ORIENTAL MEDICINE, priority 2014, dated 2021).

The target in test [1] is T1, cross-link between AGE-BSA and collagen (Bos taurus, UniProt P02769).
T1 construct: purchased Transgenic Inc. Kobe, Japan (AGE-BSA); Greiner Bio-One, Germany (collagen-coated plate)
As to the kind of experiment: Fragmentizing cross-link of advanced glycation end-products (AGE-BSA/collagen ELISA). It counts as biochemical. The settings on record: AGE-BSA cross-linked to collagen, 37° C., four hours. As to the method:
Specifically, 1.0 μg of AGE-BSA (Transgenic Inc. Kobe, Japan) was dispensed into a collagen-coated 96-well microtiter plate (Greiner Bio-One, Germany) and cultured at 37° C. for four hours, and then the AGE-BSA and collagen were allowed to cross-link. After washing the resultant three times with PBST (0.05%) to remove AGE-BSA not linked, a mixed extract and ALT-711 were added, and cultured at 37° C. for four hours. Thereafter, the resultant was washed with PBST (0.05%), and in order to detect the AGE-BSA remaining due to the cross-link to collagen, mouse monoclonal anti-AGE-BSA antibodies (6D12, Transgenic Inc. Kobe, Japan) were diluted at 1:250 and dispensed, followed by cultivation at 37° C. for one hour. After one hour, the resultant was washed with PBST (0.05%) and reacted with HRP-linked goat anti-mouse IgG antibodies (Santa Cruz, USA) to develop TMB (3.3′,5,5′-tetramethylbenzidine) as a substrate. Thereafter, absorbance was measured at 450 nm. The cross-link fragmentation effect (%) of AGE-BSA was calculated as shown in the following Equation 2.
(An ELISA detects its analyte on a solid surface through an enzyme-linked reagent.)

The subject of another test is MNU-induced C57BL/6 mice. As to the kind of experiment: MNU-induced macular degeneration model, extracts versus paeoniflorin: thickness of outer nuclear layers. The class given is in vivo. The following applies: for Thickness of outer nuclear layer (AU): orally. As to the method: 6-week-old male C57BL/6 mice were used after purification thereof for one week. In order to induce damage and denaturation of photoreceptor cells, among morphological changes of retinal tissues which appeared in macular degeneration, 1% (0.05% acetic acid) N-methyl-N-nitrosourea (MNU, Sigma, USA) was intraperitoneally injected to the 7-week-old male C57BL/6 mice at a concentration of 60 mg/kg. The same amount of 0.05% acetic acid was intraperitoneally administered to the normal group. As the samples, CMO4 (100 mg/kg), which is the extract of cinnamon twig and moutan root bark (1:8), and CPA4 (100 mg/kg), which is the extract of cinnamon twig and peony root (1:8), paeoniflorin −2.7 (2.7 mg/kg), and paeoniflorin −12.3 (12.3 mg/kg) were suspended and prepared in 0.5% CMC and administered orally once before the MNU administration day. After administration of MNU, these resultants were orally administered once a day for seven days, respectively. In the normal and MNU-induced groups, the same amount of 0.5% CMC was orally administered.
Change in a thickness of outer nuclear layers caused by damage to photoreceptor cells in retinal nerve tissues was confirmed.
Specifically, experimental groups in which the samples were treated in the same manner as Experimental Example 8-1 were autopsied after the administration, and eyeballs were enucleated. Thereafter, the enucleated eyeballs were fixed in 10% neutralized formalin for one day, and embedded with paraffin to prepare slide sections. The slide sections were stained with H&E and observed under an optical microscope.

Test [2] deals with human retinal pigment epithelial cell line (ARPE-19). The following applies: Molecular Vision 2011; 17: 3512-3522; cited from earlier work.
Test [3] relates to advanced glycation end-products (AGEs). As to the kind of experiment: Inhibition of producing advanced glycation end-products (AGEs) in vitro (BSA with fructose/glucose, fluorescence). It counts as biochemical. The settings on record: BSA 10 mg/mL, 0.2 M fructose and 0.2 M glucose, 37° C., seven days. As to the method:
Specifically, 10 mg/mL of bovine serum albumin (BSA, Sigma, USA) dissolved in 50 mM phosphate buffer (pH 7.4) was used as a protein source, and the solution mixed with 0.2 M fructose and 0.2 M glucose was used as a sugar source. The extracts of Examples and aminoguanidine (positive control group) were dissolved in 0.2% dimethylsulfoxide (DMSO), followed by dissolving again in 15% tween 80. The thus-prepared protein source, sugar source, and extracts were mixed, prepared at 1 mL in total, cultured at 37° C. for seven days, and allowed to undergo glycation. Herein, 0.02% sodium azide, an antibacterial agent, was added to prevent bacterial production. After cultivation, the fluorescence was measured at an absorption wavelength of 350 nm and an emission wavelength of 450 nm using a spectrofluorometric detector (Bio-TEK, USA).

Test [4] deals with db/db mice. The test can be described thus: Therapeutic model with metformin co-administration: damage to blood-retinal barrier. It counts as in vivo. The following applies: metformin 350 mg/kg/day alone. As to the method:
In addition, 50 mg/mL of fluorescein-dextran (2×10^6 molecular weight) which was prepared by dissolving in sterilized PBS (1 mL) was injected into the left ventricle. After 10 minutes, the eyeballs were enucleated, and the left eyeball was placed in an eyecup. The separated retina was placed on a slide, and then mounted using aqueous mounting medium. After this was sufficiently dried, a fluorescence microscope was used to observe the same. The results were confirmed at 12 weeks, 18 weeks, and 24 weeks of inducing diabetes, respectively.

Test [5] has as its system db/db mice. As to the kind of experiment: Therapeutic model with metformin co-administration: formation of acellular capillaries. It counts as in vivo. The following applies: metformin 350 mg/kg/day alone. As to the method:
Specifically, eyeballs were enucleated from mice in the same manner as Experimental Example 6-2, and retinas were enucleated from the eyeballs and washed with running water. Thereafter, they were placed in 3% trypsin and cultured at 37° C. for one hour. The digested retinas were transferred to PBS, and the internal membrane (membrane of organelle present in cells) was removed. The vascular frame was separated from the retinal background using a glass rod, placed on a slide, and dried. The dried vascular frame was then stained with PAS and hematoxylin, and variations in cell walls and nuclei were confirmed.

Another test has as its system claudin-5 and occludin. The test can be described thus: Therapeutic model with metformin co-administration: damage to tight-junction proteins. The settings on record: metformin 350 mg/kg/day alone. The class given is in vivo, mice. As to the method: In addition, the resultant was dehydrated and substituted three times with xylene, thereby embedding the same with paraffin. Blocks of the embedded tissue were prepared as serial sections in a thickness of 4 μm, and placed on slides for use. In order to remove an endogenous peroxidase activity, a slide which underwent deparaffinization and function processes was allowed to react with 3% hydrogen peroxide solution for 10 minutes, and then washed three times with PBS containing 0.05% tween 20. […] Thereafter, the diluted primary antibodies were treated for one hour or overnight. After washing with PBS for one hour, a labeled streptoavidin biotin (LSAB) kit (Dako, USA) was applied to the resultants, developed with DAB, and then observed using an optical microscope. […] Thereafter, the resultants were stained with DAPI and observed using a fluorescence microscope.

Several values for one entry are separate records, joined by “and”; a condition that tells them apart may be missing. Identical values can stand only once.

T1 sequence (P02769 25-607): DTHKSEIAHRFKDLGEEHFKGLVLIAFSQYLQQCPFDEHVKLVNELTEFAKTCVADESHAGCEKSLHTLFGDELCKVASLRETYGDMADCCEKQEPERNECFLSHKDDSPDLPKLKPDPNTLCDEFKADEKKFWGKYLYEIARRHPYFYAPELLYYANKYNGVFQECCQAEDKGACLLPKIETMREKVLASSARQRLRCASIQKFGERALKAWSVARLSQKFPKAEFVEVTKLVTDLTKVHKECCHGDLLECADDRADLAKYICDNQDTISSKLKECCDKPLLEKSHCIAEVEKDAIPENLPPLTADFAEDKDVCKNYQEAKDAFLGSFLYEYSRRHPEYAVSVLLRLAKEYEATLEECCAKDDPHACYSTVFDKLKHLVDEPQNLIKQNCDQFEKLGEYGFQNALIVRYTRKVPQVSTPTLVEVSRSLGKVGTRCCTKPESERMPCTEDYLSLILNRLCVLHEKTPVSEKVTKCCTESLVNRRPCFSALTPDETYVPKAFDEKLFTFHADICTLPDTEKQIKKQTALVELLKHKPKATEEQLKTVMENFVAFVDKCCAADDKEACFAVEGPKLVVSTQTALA

In the case of `Cc1sc[n+](CC(=O)c2ccccc2)c1C.[Cl-]` [ALT-711], the “IC50 (μg/mL), cross-link fragmentation effect of AGE-BSA” value in test [1] is 17,060 ± 2.35 μg/mL.

`C[C@@]12C[C@@]3(O)O[C@@H](O1)[C@]1(COC(=O)c4ccccc4)[C@H]3C[C@@]12O[C@@H]1O[C@H](CO)[C@@H](O)[C@H](O)[C@H]1O` [paeoniflorin]: the “Thickness of outer nuclear layer (AU)” value came to 1.23±0.21 AU with MNU-induced C57BL/6 mice (Table 4: CMO4 100 mg/kg, paeoniflorin 2.7 mg/kg, NOR 1.99, MNU 1.23, listed as PF-2.7) and 1.11±0.19 AU in the test with MNU-induced C57BL/6 mice (Table 5: CPA4 100 mg/kg, paeoniflorin 12.4 mg/kg, NOR 1.99, MNU 0.92, listed as PF-12.4). Besides, the “Thickness of outer nuclear layer (%)” value in the test with MNU-induced C57BL/6 mice (Table 5: CPA4 100 mg/kg, paeoniflorin 12.4 mg/kg, NOR = 100, MNU = 0.57, listed as PF-12.4) is 17.5% and 17.46 ± 17.39%. The “apoptosis caused by H2O2” value in test [2] is given as “inhibitory effect on apoptosis”.

As to `N=C(N)NN` [AG, aminoguanidine], the “IC50 (μg/mL), inhibition of production of advanced glycation end-products” value in test [3] worked out at 82.50 ± 1.10 µg/mL.

On to `CN(C)C(=N)N=C(N)N` [metformin], for which the “outflow of fluorescent substances” value in the test with db/db mice [4] (at 18 weeks) is recorded as “significantly reduced”. Further, in the test with db/db mice [4] (at 24 weeks), the “outflow of fluorescent substances” value was “not prevented”. For the same compound, the “formation of acellular capillaries” value in the test with db/db mice [5] is listed as “could not prevent the proliferation”. Moreover, in the test on claudin-5 and occludin, the “amount of occludin (western blot)” value is “no significant increase” and the “claudin-5 loss (staining)” value is reported as “snapped in various regions of blood vessels”.
